From BindingDB's records for doi:10.1124/jpet.102.035899 (University of Miami, 2002)
Several values for one entry are separate records, joined by “and”; a condition that tells them apart may be missing. Equal values may be shown once.

Experiments:
[1] = target: neuronal acetylcholine receptor subunit alpha-4 (Xenopus sp., UniProt A9JRM3)
[2] = target: cholinergic receptor, nicotinic, alpha 1 (Muscle) isoform X1 (Xenopus sp., UniProt F6RLM5)
[3] = target: neuronal acetylcholine receptor subunit alpha-2 (Xenopus tropicalis, UniProt A0A6I8T284)
neuronal acetylcholine receptor subunit alpha-2, sequence (A0A6I8T284 whole entry): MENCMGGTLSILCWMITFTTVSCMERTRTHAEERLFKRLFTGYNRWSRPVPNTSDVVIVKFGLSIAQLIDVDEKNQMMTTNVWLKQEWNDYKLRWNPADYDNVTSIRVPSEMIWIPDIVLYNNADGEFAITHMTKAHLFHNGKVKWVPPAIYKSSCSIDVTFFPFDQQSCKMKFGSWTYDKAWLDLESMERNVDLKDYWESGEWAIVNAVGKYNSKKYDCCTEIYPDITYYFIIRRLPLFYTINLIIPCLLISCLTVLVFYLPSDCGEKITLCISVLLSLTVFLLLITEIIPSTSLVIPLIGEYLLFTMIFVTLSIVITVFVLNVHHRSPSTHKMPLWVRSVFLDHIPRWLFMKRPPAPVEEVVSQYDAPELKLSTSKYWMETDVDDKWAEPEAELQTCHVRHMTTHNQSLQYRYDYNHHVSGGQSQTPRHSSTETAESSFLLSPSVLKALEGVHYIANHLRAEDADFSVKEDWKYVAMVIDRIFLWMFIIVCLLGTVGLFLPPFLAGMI

[4] = target: Cholinergic receptor nicotinic alpha 5 subunit (Xenopus sp., UniProt F7ELS1)
Cholinergic receptor nicotinic alpha 5 subunit, sequence (F7ELS1 whole entry): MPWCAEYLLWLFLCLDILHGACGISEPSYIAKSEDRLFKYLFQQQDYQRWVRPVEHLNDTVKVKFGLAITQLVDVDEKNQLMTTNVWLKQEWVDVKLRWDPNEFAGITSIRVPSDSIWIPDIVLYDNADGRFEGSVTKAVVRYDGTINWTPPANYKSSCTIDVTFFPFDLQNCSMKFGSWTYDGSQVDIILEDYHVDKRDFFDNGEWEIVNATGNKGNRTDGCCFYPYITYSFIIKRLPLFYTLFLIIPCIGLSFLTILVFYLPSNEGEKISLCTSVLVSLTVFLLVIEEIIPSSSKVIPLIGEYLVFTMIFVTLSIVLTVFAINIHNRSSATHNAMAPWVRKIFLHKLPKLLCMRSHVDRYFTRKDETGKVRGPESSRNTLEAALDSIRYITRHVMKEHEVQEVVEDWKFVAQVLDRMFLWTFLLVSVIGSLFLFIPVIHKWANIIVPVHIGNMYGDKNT

[5] = target: Cholinergic receptor, nicotinic alpha 1 (Xenopus sp., UniProt F6RLA9)
Cholinergic receptor, nicotinic alpha 1, sequence (F6RLA9 whole entry): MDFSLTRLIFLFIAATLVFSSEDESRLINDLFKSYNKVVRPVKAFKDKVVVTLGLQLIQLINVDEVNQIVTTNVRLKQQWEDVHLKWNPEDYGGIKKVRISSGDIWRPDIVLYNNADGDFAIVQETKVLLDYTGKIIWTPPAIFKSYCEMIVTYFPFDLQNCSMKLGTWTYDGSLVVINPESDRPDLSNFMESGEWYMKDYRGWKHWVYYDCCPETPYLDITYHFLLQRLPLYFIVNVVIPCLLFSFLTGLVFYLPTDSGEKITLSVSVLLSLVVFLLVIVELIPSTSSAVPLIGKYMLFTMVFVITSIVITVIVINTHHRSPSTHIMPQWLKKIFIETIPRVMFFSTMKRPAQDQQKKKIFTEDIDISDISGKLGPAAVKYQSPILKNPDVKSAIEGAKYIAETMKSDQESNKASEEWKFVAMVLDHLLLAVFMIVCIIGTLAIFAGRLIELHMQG

neuronal acetylcholine receptor subunit alpha-4, sequence (A9JRM3 whole entry, canonical isoform): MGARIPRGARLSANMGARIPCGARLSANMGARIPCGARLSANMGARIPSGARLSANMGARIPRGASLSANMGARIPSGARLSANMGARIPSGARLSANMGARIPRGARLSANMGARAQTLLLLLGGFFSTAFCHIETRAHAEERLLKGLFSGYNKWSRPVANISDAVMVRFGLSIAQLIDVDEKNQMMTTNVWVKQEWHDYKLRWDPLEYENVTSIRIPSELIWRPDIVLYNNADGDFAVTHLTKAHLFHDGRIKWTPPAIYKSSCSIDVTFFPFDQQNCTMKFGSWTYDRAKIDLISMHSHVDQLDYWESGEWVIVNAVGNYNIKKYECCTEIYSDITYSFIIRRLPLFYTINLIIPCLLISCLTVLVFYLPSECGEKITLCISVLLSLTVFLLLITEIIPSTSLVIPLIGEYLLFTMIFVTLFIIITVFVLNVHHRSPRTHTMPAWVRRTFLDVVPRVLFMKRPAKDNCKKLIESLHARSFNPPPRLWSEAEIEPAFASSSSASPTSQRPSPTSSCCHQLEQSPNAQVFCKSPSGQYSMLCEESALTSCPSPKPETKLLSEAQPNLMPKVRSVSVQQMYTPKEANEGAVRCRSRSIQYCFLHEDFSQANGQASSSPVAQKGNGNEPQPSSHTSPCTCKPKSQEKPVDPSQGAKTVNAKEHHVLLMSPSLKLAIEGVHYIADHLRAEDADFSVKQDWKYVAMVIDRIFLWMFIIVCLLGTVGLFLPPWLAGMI
cholinergic receptor, nicotinic, alpha 1 (Muscle) isoform X1, sequence (F6RLM5 whole entry, canonical isoform): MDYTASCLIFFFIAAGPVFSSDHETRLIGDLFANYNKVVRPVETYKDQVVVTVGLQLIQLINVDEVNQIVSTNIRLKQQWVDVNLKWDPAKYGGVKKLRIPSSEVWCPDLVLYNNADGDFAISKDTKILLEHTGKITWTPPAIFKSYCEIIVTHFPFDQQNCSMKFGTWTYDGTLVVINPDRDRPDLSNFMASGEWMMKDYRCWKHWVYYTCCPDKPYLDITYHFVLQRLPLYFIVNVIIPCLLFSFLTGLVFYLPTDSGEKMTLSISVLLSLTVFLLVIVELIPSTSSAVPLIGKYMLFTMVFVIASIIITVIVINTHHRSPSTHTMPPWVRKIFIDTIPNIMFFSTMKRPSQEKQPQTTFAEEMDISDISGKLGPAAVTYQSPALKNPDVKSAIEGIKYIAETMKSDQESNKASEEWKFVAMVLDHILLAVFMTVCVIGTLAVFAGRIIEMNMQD

**Q.** For O=c1ccc([C@H]2CC3CCC2N3)c[nH]1 (some centres not stated), which Ki [1] is on record?
**A.** The Ki was 100 nM.

**Q.** What about the Ki [2] of the same molecule?
**A.** The Ki was 100 nM.

**Q.** And the Ki [3]?
**A.** Its Ki is 100 nM.

**Q.** With Clc1ccc([C@H]2CC3CCC2N3)cn1 (stereo partly drawn) [2-(6-Chloro-pyridin-3-yl)-7-aza-bicyclo[2.2.1]heptane(+/-) epibatidine] as the molecule, how does the Ki [3] read?
**A.** The Ki was 87 nM.

**Q.** Which Ki [1] does the source give for Brc1ccc([C@H]2CC3CCC2N3)cn1 (some centres not stated) [NBEP] here?
**A.** The Ki was 0.01 nM.

**Q.** What about the Ki [4] of the same molecule?
**A.** Its Ki is 0.22 nM.

**Q.** And the Ki [2]?
**A.** Its Ki is 0.004 nM.

**Q.** What about the Ki [3] of the same molecule?
**A.** The Ki was 0.013 nM and 0.055 nM.

**Q.** And the Ki [5]?
**A.** Its Ki is 0.044 nM.

**Q.** Which Ki [1] does the source give for CN(C)c1ccc([C@H]2CC3CCC2N3)cn1 (some centres not stated) [NDMNEP] here?
**A.** The Ki was 100 nM.

**Q.** And the Ki [2]?
**A.** The Ki was 100 nM.

**Q.** What about the Ki [3] of the same molecule?
**A.** Its Ki is 100 nM.

**Q.** How did the Ki [1] turn out when c1cncc([C@H]2CC3CCC2N3)c1 (some centres not stated) [NEP] was run?
**A.** The Ki was 0.0085 nM.

**Q.** And the Ki [4]?
**A.** The Ki was 11 nM.

**Q.** What about the Ki [2] of the same molecule?
**A.** Its Ki is 0.0031 nM.

**Q.** And the Ki [5]?
**A.** Its Ki is 3.2 nM.

**Q.** How did the Ki [1] turn out when Fc1ccc([C@H]2CC3CCC2N3)cn1 (some centres not stated) [NFEP] was run?
**A.** Its Ki is 0.0092 nM.

**Q.** What about the Ki [4] of the same molecule?
**A.** The Ki was 2.1 nM.

**Q.** And the Ki [2]?
**A.** Its Ki is 0.0038 nM.

**Q.** And the Ki [5]?
**A.** Its Ki is 0.48 nM.

**Q.** With Nc1ccc([C@H]2CC3CCC2N3)cn1 (some centres not stated) [NNEP] as the molecule, how does the Ki [1] read?
**A.** The Ki was 0.35 nM.

**Q.** What about the Ki [4] of the same molecule?
**A.** The Ki was 7.2 nM.

**Q.** What about the Ki [2] of the same molecule?
**A.** The Ki was 0.077 nM.

**Q.** What about the Ki [5] of the same molecule?
**A.** Its Ki is 4.3 nM.

**Q.** How did the Ki [1] turn out when O=S(=O)(Oc1ccc([C@H]2CC3CCC2N3)cn1)C(F)(F)F (some centres not stated) [NTEP] was run?
**A.** The Ki was 100 nM.

**Q.** And the Ki [2]?
**A.** The Ki was 100 nM.

**Q.** And the Ki [3]?
**A.** Its Ki is 10 nM.
